Results published in patent publication US20240116985A1, “STAPLED PEPTIDES AND METHODS THEREOF” (priority 2020, published 2024).
≈ marks a conversion by molar mass, not a printed value. Where two headings read alike, the source gives them in different places.

How the values were obtained:
[1] = molecular target: T1, full-length beta-Catenin (Uniprot ID P35222) (Homo sapiens, UniProt P35222); assay: Fluorescence polarization IC50 (beta-catenin / 5FAM-TCF4 10-53 competition); assay type: binding
T1 construct: 10 nM full-length beta-Catenin (Uniprot ID P35222)
T1 sequence (P35222 1-781): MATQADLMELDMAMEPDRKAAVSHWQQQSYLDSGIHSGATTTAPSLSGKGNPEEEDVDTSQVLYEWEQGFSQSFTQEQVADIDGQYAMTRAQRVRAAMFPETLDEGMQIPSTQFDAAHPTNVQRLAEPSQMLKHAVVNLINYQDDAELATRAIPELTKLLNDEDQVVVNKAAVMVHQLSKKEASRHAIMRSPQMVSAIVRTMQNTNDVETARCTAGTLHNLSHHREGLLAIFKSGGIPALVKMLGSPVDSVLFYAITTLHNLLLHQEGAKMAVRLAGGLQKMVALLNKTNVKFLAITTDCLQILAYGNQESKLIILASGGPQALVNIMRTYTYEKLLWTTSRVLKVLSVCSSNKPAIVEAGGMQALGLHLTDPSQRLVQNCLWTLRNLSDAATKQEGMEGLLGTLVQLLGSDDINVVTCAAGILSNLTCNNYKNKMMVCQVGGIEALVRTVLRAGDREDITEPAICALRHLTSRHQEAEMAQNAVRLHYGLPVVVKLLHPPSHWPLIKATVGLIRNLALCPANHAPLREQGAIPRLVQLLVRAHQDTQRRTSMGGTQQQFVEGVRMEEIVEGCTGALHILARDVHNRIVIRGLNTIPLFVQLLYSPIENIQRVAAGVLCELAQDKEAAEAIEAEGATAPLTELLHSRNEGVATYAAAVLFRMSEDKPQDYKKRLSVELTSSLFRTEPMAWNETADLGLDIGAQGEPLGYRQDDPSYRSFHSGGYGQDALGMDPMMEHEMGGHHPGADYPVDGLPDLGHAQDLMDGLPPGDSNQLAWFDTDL

CHI Log D procedure = assay type: physicochemical; conditions: for CHI Log D: pH 7.4
Solubility in PBS = assay type: physicochemical
Method in brief: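 Steps: ultracentrifuge the peptide PBS solution, inject the supernatant on HPLC, inject a 50 μM peptide DMSO solution as reference, then calculate solubility as area ratio (PBS/DMSO) × 50 uM.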

[2] = molecular target: T2, beta-catenin/TCF4 engagement (Homo sapiens, UniProt P35222); assay: Nano-BRET target engagement assay (B-cat-Halo & TCF4-Luc in HEK293 cells); assay type: cell-based; conditions: for IC50: absolute IC50, read-out: NanoBRET Abs IC50
T2 construct: expressed in transfected cells; host or cells: HEK293
T2 sequence (P35222 1-781): T1 sequence (P35222 1-781)

[3] = fluorescence polarization, read-out: beta-Catenin FP IC50

| IC50 [1, 3] [nM] | IC50 ([1]; read-out: FP EC50) [nM] | CHI Log D (CHI Log D procedure) | Solubility (Solubility in PBS) [µM] | IC50 [2] [nM] | chromatographic logD (CHI Log D procedure; pH 7.4, CHI Log D) | Solubility (Solubility in PBS; Solubility (uM)) [µM] | inhibition at 10 µM ([2]; HEK293, @ 10 uM, read-out: NanoBRET % inh @ 10 uM) [%] | Compound |
| --- | --- | --- | --- | --- | --- | --- | --- | --- |
| 26 | 26 | 2.125 | 46 (≈ 87.4 µg/mL) | 16100 | – | – | – | CC[C@H](C)[C@@H]1NC(=O)[C@H](CC(=O)O)NC(=O)[C@]2(CC=CCCCC3(CCCC=CCCCCCC[C@@](C)(C(=O)N[C@@H](Cc4ccccc4)C(=O)N[C@@H](Cc4csc5ccccc45)C(=O)N[C@@H](CCC(N)=O)C(N)=O)NC(=O)[C@H](CCC(N)=O)NC(=O)[C@H](Cc4ccccc4)NC(=O)[C@H](CO)NC(=O)[C@H](C)NC(=O)[C@H](CCC(=O)O)NC(=O)[C@H](CC(=O)O)NC3=O)NC1=O)CCCN2C(C)=O (stereo partly drawn) [I-662, Ac-PL3-Asp-Ile-B5-Asp-Glu-Ala-Ser-Phe-Gln-S8-Phe-BztA-Gln-NH2] |
| 22 | – | – | – | 6700 | 2.45 | 49 (≈ 92.3 µg/mL) | – | CC(=O)N1CCC[C@]12CC=CCCCC1(CCCC=CCCCCCC[C@@](C)(C(=O)N[C@@H](Cc3ccccc3)C(=O)N[C@@H](Cc3csc4ccccc34)C(=O)N[C@@H](CCC(N)=O)C(N)=O)NC(=O)[C@H](CC(N)=O)NC(=O)[C@H](Cc3ccccc3)NC(=O)[C@H](C)NC(=O)[C@H](C)NC(=O)[C@H](CCC(=O)O)NC(=O)[C@H](CC(=O)O)NC1=O)NC(=O)[C@H](CC(C)(C)C)NC(=O)[C@H](CC(=O)O)NC2=O (stereo partly drawn) [I-677, Ac-PL3-Asp-Npg-B5-Asp-Glu-Ala-Ala-Phe-Asn-S8-Phe-BztA-Gln-NH2] |
| 26 | 26 | 2.329 | 49 (≈ 91.9 µg/mL) | 16800 | – | – | – | CC(=O)N1CCC[C@]12CC=CCCCC1(CCCC=CCCCCCC[C@@](C)(C(=O)N[C@@H](Cc3ccsc3)C(=O)N[C@@H](Cc3csc4ccccc34)C(=O)N[C@@H](CCC(N)=O)C(N)=O)NC(=O)[C@H](CC(N)=O)NC(=O)[C@H](Cc3ccccc3)NC(=O)[C@H](C)NC(=O)[C@H](C)NC(=O)[C@H](CC(=O)O)NC(=O)[C@H](CC(=O)O)NC1=O)NC(=O)[C@H](CC(C)(C)C)NC(=O)[C@H](CC(=O)O)NC2=O (stereo partly drawn) [I-678, Ac-PL3-Asp-Npg-B5-Asp-Asp-Ala-Ala-Phe-Asn-S8-3Thi-BztA-Gln-NH2] |
| 7 | 7 | 2.382 | 48 (≈ 90 µg/mL) | 17100 | – | – | 44.8 | CC(=O)N1CCC[C@]12CC=CCCCC1(CCCC=CCCCCCC[C@@](C)(C(=O)N[C@@H](Cc3ccsc3)C(=O)N[C@@H](Cc3csc4ccccc34)C(=O)N[C@@H](CCC(N)=O)C(N)=O)NC(=O)[C@H](CC(N)=O)NC(=O)[C@H](Cc3ccccc3)NC(=O)[C@H](C)NC(=O)[C@H](C)NC(=O)[C@H](CC(=O)O)NC(=O)[C@H](CC(=O)O)NC1=O)NC(=O)[C@H](CC(C)(C)C)NC(=O)[C@H](CC(=O)O)NC2=O (stereo partly drawn) [I-679, Ac-PL3-Asp-Npg-B5-Asp-Asp-Ala-Ala-Phe-Asn-S8-3Thi-BztA-Gln-NH2] |
| 32 | 32 | 2.215 | 47 (≈ 87.5 µg/mL) | 34400 | – | – | – | CC(=O)N1CCC[C@]12CC=CCCCC1(CCCC=CCCCCCC[C@@](C)(C(=O)N[C@@H](Cc3ccsc3)C(=O)N[C@@H](Cc3csc4ccccc34)C(=O)N[C@@H](CCC(N)=O)C(N)=O)NC(=O)[C@H](CC(N)=O)NC(=O)[C@H](Cc3ccccc3)NC(=O)[C@H](C)NC(=O)[C@H](C)NC(=O)[C@H](CC(=O)O)NC(=O)[C@H](CC(=O)O)NC1=O)NC(=O)[C@H](CC(C)C)NC(=O)[C@H](CC(=O)O)NC2=O (stereo partly drawn) [I-680, Ac-PL3-Asp-Leu-B5-Asp-Asp-Ala-Ala-Phe-Asn-S8-3Thi-BztA-Gln-NH2] |
| 12 | 12 | 2.273 | 48 (≈ 89.3 µg/mL) | 25100 | – | – | – | CC(=O)N1CCC[C@]12CC=CCCCC1(CCCC=CCCCCCC[C@@](C)(C(=O)N[C@@H](Cc3ccsc3)C(=O)N[C@@H](Cc3csc4ccccc34)C(=O)N[C@@H](CCC(N)=O)C(N)=O)NC(=O)[C@H](CC(N)=O)NC(=O)[C@H](Cc3ccccc3)NC(=O)[C@H](C)NC(=O)[C@H](C)NC(=O)[C@H](CC(=O)O)NC(=O)[C@H](CC(=O)O)NC1=O)NC(=O)[C@H](CC(C)C)NC(=O)[C@H](CC(=O)O)NC2=O (stereo partly drawn) [I-681, Ac-PL3-Asp-Leu-B5-Asp-Asp-Ala-Ala-Phe-Asn-S8-3Thi-BztA-Gln-NH2] |
| 19 | 19 | 2.44 | 37 (≈ 69.9 µg/mL) | 6700 | – | – | – | CC(=O)N1CCC[C@]12CC=CCCCC1(CCCC=CCCCCCC[C@@](C)(C(=O)N[C@@H](Cc3ccsc3)C(=O)N[C@@H](Cc3csc4ccccc34)C(=O)N[C@@H](CCC(N)=O)C(N)=O)NC(=O)[C@H](CC(N)=O)NC(=O)[C@H](Cc3ccccc3)NC(=O)[C@H](C)NC(=O)[C@H](C)NC(=O)[C@H](CCC(=O)O)NC(=O)[C@H](CC(=O)O)NC1=O)NC(=O)[C@H](CC(C)(C)C)NC(=O)[C@H](CC(=O)O)NC2=O (stereo partly drawn) [I-683, Ac-PL3-Asp-Npg-B5-Asp-Glu-Ala-Ala-Phe-Asn-S8-3Thi-BztA-Gln-NH2] |
| 15 | 15 | 2.037 | 44 (≈ 84.8 µg/mL) | 14300 | – | – | – | CC(=O)N1CCC[C@]12CC=CCCCC1(CCCC=CCCCOC(=O)N3CC[C@@](C(=O)N[C@@H](Cc4ccccc4)C(=O)N[C@@H](Cc4csc5ccccc45)C(=O)N[C@@H](CCC(N)=O)C(N)=O)(C3)NC(=O)[C@H](CC(N)=O)NC(=O)[C@H](Cc3ccccc3)NC(=O)[C@H](C)NC(=O)[C@H](C)NC(=O)[C@H](CCC(=O)O)NC(=O)[C@H](CC(=O)O)NC1=O)NC(=O)[C@H](CC(C)(C)C)NC(=O)[C@H](CC(=O)O)NC2=O (stereo partly drawn) [I-684, Ac-PL3-Asp-Npg-B5-Asp-Glu-Ala-Ala-Phe-Asn-PyrS2-Phe-BztA-Gln-NH2] |
| 25 | 25 | 2.1 | 44 (≈ 84.8 µg/mL) | 19400 | – | – | – | CC(=O)N1CCC[C@]12CC=CCCCC1(CCCC=CCCCOC(=O)N3CC[C@@](C(=O)N[C@@H](Cc4ccccc4)C(=O)N[C@@H](Cc4csc5ccccc45)C(=O)N[C@@H](CCC(N)=O)C(N)=O)(C3)NC(=O)[C@H](CC(N)=O)NC(=O)[C@H](Cc3ccccc3)NC(=O)[C@H](C)NC(=O)[C@H](C)NC(=O)[C@H](CCC(=O)O)NC(=O)[C@H](CC(=O)O)NC1=O)NC(=O)[C@H](CC(C)(C)C)NC(=O)[C@H](CC(=O)O)NC2=O (stereo partly drawn) [I-685, Ac-PL3-Asp-Npg-B5-Asp-Glu-Ala-Ala-Phe-Asn-PyrS2-Phe-BztA-Gln-NH2] |
| 6 | 6 | 1.924 | 46 (≈ 87.6 µg/mL) | 30100 | – | – | – | CC(=O)N1CCC[C@]12CC=CCCCC1(CCCC=CCCCOC(=O)N3CC[C@@](C(=O)N[C@@H](Cc4ccsc4)C(=O)N[C@@H](Cc4csc5ccccc45)C(=O)N[C@@H](CCC(N)=O)C(N)=O)(C3)NC(=O)[C@H](CC(N)=O)NC(=O)[C@H](Cc3ccccc3)NC(=O)[C@H](C)NC(=O)[C@H](C)NC(=O)[C@H](CC(=O)O)NC(=O)[C@H](CC(=O)O)NC1=O)NC(=O)[C@H](CC(C)C)NC(=O)[C@H](CC(=O)O)NC2=O (stereo partly drawn) [I-688, Ac-PL3-Asp-Leu-B5-Asp-Asp-Ala-Ala-Phe-Asn-PyrS2-3Thi-BztA-Gln-NH2] |
